According to US8492391B2, “Substituted 6-(2-hydroxybenzylamino)purine derivatives, their use as medicaments and compositions containing these derivatives” (Univerzita Palackeho V Olomouci, priority 2009, dated 2013):
Entries after “also recorded” stand apart in the source; their conditions may differ.

Columns and labels:
[1] = molecular target: T1, CDK9/cyclin T (Homo sapiens, UniProt P50750); experiment: CDK9/cyclin T kinase inhibition assay; type: biochemical; conditions: kinase inhibitory activity, 15 μM ATP, (YSPTSPS)3 peptide substrate
T1 construct: made in house; host or cells: Sf9 insect cells, baculovirus co-infection
Method: (§1) Selected compounds were tested for CDK1/cyclin B, CDK2/cyclin E, CDK5/p25, CDK7/cyclin H and CDK9/cyclin T inhibitory activity to determine the basic relationships between their structure and the inhibitory activity. Cdk/cyclin complexes were expressed in Sf9 cells co-infected with appropriate baculoviral construct. The cells were harvested 70 hours post infection in lysis buffer (50 mM Tris pH 7.4, 150 mM NaCl, 5 mM EDTA, 20 mM NaF, 1% Tween 20, protease inhibitors) for 30 min on ice and the soluble fraction was recovered by centrifugation at 14.000 g for […]. The protein extract was stored at −80° C. until use. The final point test system for kinase activity measurement was used to carry out experiments on the kinetics under linear conditions. […] ATP and tested compound in a final volume of 20 μl, all in reaction buffer: 50 mM Hepes pH 7.4, 10 mM MgCl2, 5 mM EGTA, 10 mM 2-glycerolphosphate, 1 mM NaF, 1 mM DTT and protease inhibitors. After 30 min, the incubations were stopped by adding 5% H3PO4 and then the proteins were separated by phosphocellulose binding. The measurement of kinase inhibition employed the digital imaging analyzer BAS 1800. The kinase activity was expressed as a percentage of maximum activity and the IC50 value was determined by graphic analysis. The kinase activity is expressed as a percentage of maximum activity (FIG. 1).

[2] = test system: C-terminal domain of RNA polymerase II (serine 2 and serine 5 phosphorylation); experiment: Immunoblotting of RNA polymerase II CTD phosphorylation (CDK9 activity in cells), MCF-7; type: cell-based, human; conditions: MCF-7 cells
Method: Effect of compounds on CDK9 activity in cells was monitored by site-specific phosphorylations of C-terminal domain of RNA polymerase II, a substrate of CDK9, by means of immunoblotting. For immunoblotting, cell were detached with rubber policeman and washed three times with ice-cold PBS and lysed in buffer (50 mM Tris, pH 7.4, 250 mM NaCl, 5 mM EDTA, 50 mM NaF, 1 mM Na3VO4, 1% Nonidet P40) containing mixture of protease and phosphatase inhibitors (Sigma-Aldrich, USA). 20 μg of total proteins were separated by SDS-polyacrylamide gel electrophoresis (SDS-PAGE) and transferred onto nitrocellulose membranes. Membranes were blocked in 5% milk and 0.1% Tween 20 in PBS and probed overnight with specific monoclonal antibodies or rabbit polyclonal sera. Primary antibodies specific for RNA polymerase II (all from Santa Cruz Biotechnology, California, USA) included: (i) N-20 used at 1 μg/ml, (ii) H14, specific for form phosphorylated at phosphoserine 5, used at 6 μg/ml and (iii) H5, specific for form phosphorylated at phosphoserine 2 used at 4 μg/ml. […] All primary antibodies were diluted in PBS containing 5% powdered milk; 0.1% Tween 20. Peroxidase conjugated rabbit anti-mouse immunoglobulin or porcine anti-rabbit immunoglobulin antisera (DAKO, Denmark) were used as the secondary antibodies and visualised with ECL reagents (Amersham-Pharmacia, Little Chalfont, UK). […]

[3] = molecular target: T2, CDK2/cyclin E (Homo sapiens, UniProt P24941); experiment: CDK2/cyclin E kinase inhibition assay; type: biochemical
T2 construct: made in house; host or cells: Sf9 insect cells, baculovirus co-infection
Method: as §1

[4] = test system: A549 lung adenocarcinoma; experiment: Human xenograft model of A549 lung adenocarcinoma; type: in vivo; conditions: 150 mg/kg orally twice daily
Method: More detailed analysis of anticancer activity of compound 128 was performed on human xenograft model of A549 lung adenocarcinoma transplanted to CD-1 SCID mice. Animals were transplanted subcutaneously with 2.10^6 A549 cells into lower back. Approximately one month later, majority of animals developed palpable tumors and therapy was initiated. The drug was given orally by gastric gavages in total volume of 200 μl/dose twice daily at dose 150 mg/kg in two chemotherapy cycles (Days 1-3 and 7-9). The compound 128 was solubilized in 5% N-methyl-2-pyrollidine, 30% polyethylene glycol 400, 65% tartar buffer (pH 3.0). Primary endpoint for analysis was reduction of tumor volume (10 mice/group), which was quantified by caliperation. Analysis of treated animals was preformed in comparison with vehicle treated mice. Body weight of experimental animals was also evaluated in parallel in order to reflect toxicity of the therapy. Comparative analysis of tumor volumes and body weights was performed using non-parametric t-test.

[5] = test system: K562 (human chronic myelogenous leukaemia); experiment: Calcein AM cytotoxicity assay, K562; type: cell-based; conditions: Homo sapiens, read-out: Cytotoxic activity IC50 (μM) K562
Text: Cytotoxicity of the compounds is the major property determining their anticancer effect in vivo. One of the parameters used, as the basis for cytotoxicity assays, is the metabolic activity of viable cells. For example, a microtiter assay, which uses the Calcein AM, is now widely used to quantitate cell proliferation and cytotoxicity. For instance, this assay is used in drug screening programs and in chemosensitivity testing. Because only metabolically active cells cleave Calcein AM, these assays detect viable cells exclusively. The quantity of cleaved Calcein AM corresponds to the number of vital cells in the culture. We have been using the following cell lines: MCF7 (human breast adenocarcinoma), K562 (human chronic myelogenous leukaemia), HOS (human osteogenic sarcoma), HeLa (human cervical carcinoma), HL 60 (human promyelocytic leukaemia), G 361 (human malignant melanoma), CEM (human lymphoblastoid leukaemia). All cell lines were grown in DMEM medium (Gibco BRL) supplemented with 10% (v/v) fetal bovine serum and L-glutamine and maintained at 37° C. in a humidified atmosphere with 5% CO2. For cytotoxicity assays, 10^4 cells were seeded into each well of 96 well plate, allowed to stabilize for at least 2 h and then tested compounds were added at various concentrations ranging from 100 to 0.1 μM in triplicates. Three days after drug addition Calcein AM solution (Molecular Probes) was added and let to enter the cells for 1 hour. Fluorescence of viable cells was quantified using Fluoroskan Ascent (Microsystems).

T1 sequence (P50750 whole entry, species assumed): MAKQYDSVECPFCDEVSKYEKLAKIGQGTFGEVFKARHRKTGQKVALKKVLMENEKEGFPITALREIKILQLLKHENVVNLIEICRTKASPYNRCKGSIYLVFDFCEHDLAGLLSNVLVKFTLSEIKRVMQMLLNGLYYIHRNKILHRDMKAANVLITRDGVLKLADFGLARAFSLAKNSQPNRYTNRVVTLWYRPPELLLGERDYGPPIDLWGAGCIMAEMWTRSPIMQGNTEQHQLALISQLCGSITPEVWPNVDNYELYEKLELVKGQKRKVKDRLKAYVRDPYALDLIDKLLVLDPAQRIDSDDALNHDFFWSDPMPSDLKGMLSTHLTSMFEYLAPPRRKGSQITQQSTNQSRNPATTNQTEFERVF
T1 sequence (O60563 whole entry partner, species assumed): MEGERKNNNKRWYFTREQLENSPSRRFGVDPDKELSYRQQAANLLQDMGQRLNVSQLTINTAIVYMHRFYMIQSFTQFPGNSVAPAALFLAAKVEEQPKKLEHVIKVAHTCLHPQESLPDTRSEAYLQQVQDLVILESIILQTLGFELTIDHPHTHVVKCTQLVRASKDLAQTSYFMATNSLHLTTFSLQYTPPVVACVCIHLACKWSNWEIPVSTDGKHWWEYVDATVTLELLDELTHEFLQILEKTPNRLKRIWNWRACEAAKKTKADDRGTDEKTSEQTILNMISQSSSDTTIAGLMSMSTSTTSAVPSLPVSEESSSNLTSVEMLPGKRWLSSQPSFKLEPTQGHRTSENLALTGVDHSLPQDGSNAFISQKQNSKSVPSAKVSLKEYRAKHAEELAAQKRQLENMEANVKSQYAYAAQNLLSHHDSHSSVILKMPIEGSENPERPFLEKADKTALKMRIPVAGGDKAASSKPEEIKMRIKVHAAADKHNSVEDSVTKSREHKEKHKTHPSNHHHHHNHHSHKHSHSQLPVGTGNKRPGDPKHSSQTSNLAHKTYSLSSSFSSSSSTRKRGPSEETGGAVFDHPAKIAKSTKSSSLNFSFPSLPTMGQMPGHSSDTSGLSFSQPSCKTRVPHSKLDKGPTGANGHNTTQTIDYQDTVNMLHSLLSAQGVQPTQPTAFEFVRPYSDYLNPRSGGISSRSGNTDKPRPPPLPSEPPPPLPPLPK

## CCC(CO)Nc1nc(NCc2cccc(OC)c2O)c2ncn(C(C)C)c2n1 (racemic) [Compound 128, (RS)-2-({6-[(2-hydroxy-3-methoxybenzyl)amino]-9-isopropyl-9-H-purin-2-yl}amino)butan-1-ol]
[1]
  IC50: 0.04 µM
[2]
  levels of serine 2 and serine 5 phosphorylation of RNA polymerase II CTD: substantially reduced; also recorded: is inhibited
[3]; CDK2/cyclin E
  inhibition of kinase activity (FIG. 1): inhibition of the CDK2/cyclin E kinase activity
[3]; kinase inhibitory activity, 15 μM ATP, histone substrate
  IC50: 0.07 µM
[4]; Days 1-3 and 7-9
  mean survival time: 39.1 days
  tolerability: good tolerability
[4]; Days 1-3 and 7-9, vs vehicle, P=0.0506
  tumor volume: significantly smaller tumors
[4]; significant at Day 52 only
  body weight of treated animals: only slight reduction the body weight
[5]
  IC50: 15.5 µM
